Experimental data reported in ChEMBL document CHEMBL1201862, “PubChem BioAssay data set” (2004).
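1) Cells in 96-well plates. 2) Compound, 48 h, 5 concentrations. 3) Linear interpolation between surrounding doses. 4) Unreached endpoint = highest concentration. Here, GI50 denotes the concentration required for 50% inhibition of growth.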 Activity calls are given as the source filed them. No stated cut-off is given here; in the data, active = GI50 up to about 1.1 µM and inactive = higher.

Key:
Experiment in all cases: NCI-60 cell line screen, 48 h
HL-60 = system: HL-60
HCC 2998 = system: HCC 2998
786-0 = system: 786-0
HT-29 = system: HT-29
UO-31 = system: UO-31
SNB-75 = system: SNB-75
COLO 205 = system: COLO 205
SK-MEL-5 = system: SK-MEL-5
Malme-3M = system: Malme-3M
HOP-92 = system: HOP-92
HCT-116 = system: HCT-116
SF-268 = system: SF-268
A549 = system: A549
LXFL 529 = system: LXFL 529
NCI-H460 = system: NCI-H460
SNB-78 = system: SNB-78
RPMI-8226 = system: RPMI-8226
KM12 = system: KM12
DU-145 = system: DU-145

SMILES	GI50 (HL-60)	GI50 (HCC 2998)	GI50 (786-0)	GI50 (HT-29)	GI50 (UO-31)	GI50 (SNB-75)	GI50 (COLO 205)	GI50 (SK-MEL-5)	GI50 (Malme-3M)	GI50 (HOP-92)	GI50 (HCT-116)	GI50 (SF-268)	GI50 (A549)	GI50 (LXFL 529)	GI50 (NCI-H460)	GI50 (SNB-78)	GI50 (RPMI-8226)	GI50 (KM12)	GI50 (DU-145)
CN(C)CCCn1c2c3ccccc3ccc2c2oc(=O)c3ccccc3c21	2.28 µM (inactive)	1.22 µM (inactive)	2.64 µM (inactive)	5.53 µM (inactive)	3.44 µM (inactive)	2.48 µM (inactive)	2.48 µM (inactive)	9.53 µM (inactive)	7.64 µM (inactive)	23.8 µM (inactive)	2.48 µM (inactive)	5.41 µM (inactive)	4.53 µM (inactive)	3.56 µM (inactive)	2.05 µM (inactive)	13.6 µM (inactive)	4.63 µM (inactive)	3.83 µM (inactive)	
O=C(c1ccccc1)c1ccc2c(c1)N=C(c1ccc(Cl)c(Cl)c1)CC(c1ccc3ccccc3c1)N2 (configuration not stated)	69 µM (inactive)	> 100 µM (inactive)		> 100 µM (inactive)	> 100 µM (inactive)	> 100 µM (inactive)	> 100 µM (inactive)	> 100 µM (inactive)		> 100 µM (inactive)	> 100 µM (inactive)	> 100 µM (inactive)	> 100 µM (inactive)	> 100 µM (inactive)	> 100 µM (inactive)	> 100 µM (inactive)	99.8 µM (inactive)	> 100 µM (inactive)	
CC12CCCCC1(C)C2Sc1ccccc1 (configuration not stated)	17.5 µM (inactive)	31.4 µM (inactive)	44.8 µM (inactive)	37.2 µM (inactive)	57.9 µM (inactive)	70.8 µM (inactive)	> 65.3 µM (inactive)	31 µM (inactive)	63 µM (inactive)	26.7 µM (inactive)	38.1 µM (inactive)	42.3 µM (inactive)	43.6 µM (inactive)	63.8 µM (inactive)	> 68.4 µM (inactive)	> 44.3 µM (inactive)	18.4 µM (inactive)	49.3 µM (inactive)	
O=C1c2cccc(NCCNCCO)c2C(=O)c2cccc(NCCNCCO)c21	1.6 µM (inactive)	0.802 µM (active)	0.665 µM (active)	0.52 µM (active)	4.72 µM (inactive)	1.03 µM (active)	0.661 µM (active)	1.69 µM (inactive)	1.82 µM (inactive)	0.507 µM (active)	0.43 µM (active)	0.518 µM (active)	1.56 µM (inactive)	0.643 µM (active)	1.55 µM (inactive)	1.52 µM (inactive)	1.2 µM (inactive)	0.792 µM (active)	0.612 µM (active)
CC1=C(C(=O)Nc2c(C)cccc2C)C(c2ccccc2Cl)C(C(=O)Nc2c(C)cccc2C)=C(C)N1	> 100 µM (inactive)	> 100 µM (inactive)	> 100 µM (inactive)	> 100 µM (inactive)	> 100 µM (inactive)	94.8 µM (inactive)	> 100 µM (inactive)	> 100 µM (inactive)	> 100 µM (inactive)	> 100 µM (inactive)		> 100 µM (inactive)	> 100 µM (inactive)	> 100 µM (inactive)	> 100 µM (inactive)	> 100 µM (inactive)	> 100 µM (inactive)	> 100 µM (inactive)	
CCOc1ccccc1NC(=O)C1=C(C)NC(C)=C(C(=O)Nc2ccccc2OCC)C1c1ccc([N+](=O)[O-])cc1	34.7 µM (inactive)	> 100 µM (inactive)	> 100 µM (inactive)	75.5 µM (inactive)	32.7 µM (inactive)	53.1 µM (inactive)	67.9 µM (inactive)		> 100 µM (inactive)	10.5 µM (inactive)	> 100 µM (inactive)	> 100 µM (inactive)	> 100 µM (inactive)	70.5 µM (inactive)	63.2 µM (inactive)	> 100 µM (inactive)	10 µM (inactive)	41 µM (inactive)	
COc1c(OC(C)=O)ccc(/C=C2\N=C(C)OC2=O)c1[N+](=O)[O-]	> 100 µM (inactive)	> 100 µM (inactive)	> 100 µM (inactive)	> 100 µM (inactive)	> 100 µM (inactive)	91.6 µM (inactive)	> 100 µM (inactive)	> 100 µM (inactive)	> 100 µM (inactive)	> 100 µM (inactive)	> 100 µM (inactive)	> 100 µM (inactive)	> 100 µM (inactive)	> 100 µM (inactive)	> 100 µM (inactive)	> 100 µM (inactive)	> 100 µM (inactive)	> 100 µM (inactive)	
CCC(C(=O)O)c1ccc(OCc2ccccc2)cc1 (configuration not stated)	> 100 µM (inactive)	> 100 µM (inactive)		> 100 µM (inactive)	21.5 µM (inactive)	70 µM (inactive)	> 100 µM (inactive)	> 100 µM (inactive)	> 100 µM (inactive)	> 100 µM (inactive)	> 100 µM (inactive)	> 100 µM (inactive)	> 100 µM (inactive)	> 100 µM (inactive)	> 100 µM (inactive)	> 100 µM (inactive)	> 100 µM (inactive)	> 100 µM (inactive)	
Cc1ccc(NC(=O)C(=O)CC(=O)c2c(C)[n+]([O-])c3ccccc3[n+]2[O-])cc1C	> 100 µM (inactive)	> 100 µM (inactive)	> 100 µM (inactive)	> 100 µM (inactive)	> 100 µM (inactive)	> 100 µM (inactive)	43.7 µM (inactive)	> 100 µM (inactive)	> 100 µM (inactive)	> 100 µM (inactive)	> 100 µM (inactive)	> 100 µM (inactive)	> 100 µM (inactive)	> 100 µM (inactive)	83 µM (inactive)	> 100 µM (inactive)	> 100 µM (inactive)	> 100 µM (inactive)	
c1ccc(C2OCCO2)c(OCCOc2cc(OCCOc3ccccc3C3OCCO3)c(OCCOc3ccccc3C3OCCO3)cc2OCCOc2ccccc2C2OCCO2)c1	> 100 µM (inactive)		4.67 µM (inactive)	> 100 µM (inactive)	12.9 µM (inactive)	2.16 µM (inactive)	> 100 µM (inactive)	26.1 µM (inactive)	43.1 µM (inactive)	5.28 µM (inactive)	14.5 µM (inactive)	15.3 µM (inactive)	24.4 µM (inactive)	29.2 µM (inactive)	24.3 µM (inactive)	5.46 µM (inactive)	> 100 µM (inactive)	91.8 µM (inactive)	
CCCCNC(=O)C1C(=O)N(CCCC)C(=O)/C1=N\N (configuration not stated)		> 100 µM (inactive)	> 100 µM (inactive)	> 100 µM (inactive)	> 100 µM (inactive)	> 100 µM (inactive)	> 100 µM (inactive)	> 100 µM (inactive)	> 100 µM (inactive)	> 100 µM (inactive)	> 100 µM (inactive)	> 100 µM (inactive)		> 100 µM (inactive)	> 100 µM (inactive)	> 100 µM (inactive)	> 100 µM (inactive)	> 100 µM (inactive)	
O=C(O)/C(=C/c1c(O)ccc2ccccc12)c1csc(-c2nc(/C(=C\c3c(O)ccc4ccccc34)C(=O)O)cs2)n1	8.45 µM (inactive)	17.4 µM (inactive)	13.5 µM (inactive)	22.2 µM (inactive)	1.53 µM (inactive)	11 µM (inactive)	16.4 µM (inactive)	19.4 µM (inactive)	1.61 µM (inactive)	1.86 µM (inactive)	10.6 µM (inactive)	10 µM (inactive)	23.3 µM (inactive)	13.6 µM (inactive)	19 µM (inactive)	13.6 µM (inactive)	9.38 µM (inactive)	19.8 µM (inactive)	
ClC(Cl)[Si]12OCCN(CCO1)CCO2	> 100 µM (inactive)	> 100 µM (inactive)	> 100 µM (inactive)	> 100 µM (inactive)	> 100 µM (inactive)	> 100 µM (inactive)	> 100 µM (inactive)	> 100 µM (inactive)	> 100 µM (inactive)	> 100 µM (inactive)	> 100 µM (inactive)	> 100 µM (inactive)	> 100 µM (inactive)	> 100 µM (inactive)	> 100 µM (inactive)	> 100 µM (inactive)	> 100 µM (inactive)	> 100 µM (inactive)	
COc1ccc2[nH]c(=O)cc(C)c2c1[N+](=O)[O-]	> 100 µM (inactive)	> 100 µM (inactive)	> 100 µM (inactive)	> 100 µM (inactive)	18.3 µM (inactive)	10.5 µM (inactive)	> 100 µM (inactive)	> 100 µM (inactive)	> 100 µM (inactive)	32.4 µM (inactive)	> 100 µM (inactive)	82 µM (inactive)	> 100 µM (inactive)	> 100 µM (inactive)	> 100 µM (inactive)	> 100 µM (inactive)	> 100 µM (inactive)	> 100 µM (inactive)	
COc1ccc(C2C(C#N)=C(O)NC(O)=C2C#N)cc1OC		> 100 µM (inactive)		> 100 µM (inactive)	> 100 µM (inactive)	> 100 µM (inactive)	> 100 µM (inactive)	> 100 µM (inactive)	> 100 µM (inactive)	> 100 µM (inactive)	> 100 µM (inactive)	> 100 µM (inactive)	> 100 µM (inactive)	> 100 µM (inactive)		> 100 µM (inactive)	> 100 µM (inactive)	> 100 µM (inactive)	
Cc1ccccc1NC(=O)C1C(=O)N(c2ccccc2C)C(=O)/C1=N\NC(N)=O (configuration not stated)	> 100 µM (inactive)	> 100 µM (inactive)	> 100 µM (inactive)	> 100 µM (inactive)	> 100 µM (inactive)	37.5 µM (inactive)	> 100 µM (inactive)	> 100 µM (inactive)	> 100 µM (inactive)	> 100 µM (inactive)	> 100 µM (inactive)	> 100 µM (inactive)	> 100 µM (inactive)	> 100 µM (inactive)	> 100 µM (inactive)	> 100 µM (inactive)		> 100 µM (inactive)	
